# Measured values: patent US6821751B2, “Hypoxia responsive transcription enhancer element from yeast” (The Brigham and Women's Hospital, Inc., priority 2001, dated 2004)
# Assays:
# [1] = tested on: LORE-basal CYC1 promoter-lacZ; assay: microbe, parasite or virus in culture; type: cell-based, S. cerevisiae
# Experimental: The construction of several of the OLE1 promoter-lacZ fusion deletion series has been described previously (Choi, et al., J. Biol. Chem. 271:3581-3589 (1996)). Construction of pAM6, pAM7, pAM10 and pAM16 vectors containing the OLE1 low oxygen response element (LORE) sequences −347 to −328 relative to the ATG translational start codon with the A of the codon designated as +1) was performed by inserting the synthetic paired oligonucleotides (10-5′ and 10-3′) into the XhoI restriction site of pTBA30, the CYC1 basal promoter-lacZ fusion vector. pAM16 contains one LORE copy in the −347 to −328 forward or (+) orientation 5′ to the basal CYC1 promoter-lacZ fusion. pAM7 has one LORE copy in the −328 to −347 reverse or (+) orientation. pAM6 contains a tandem repeat of the LORE in the (+) orientation. pAM10 was generated by inserting the synthetic paired oligonucleotides (yd-19 and yd-20) into the XhoI restriction site of pTBA30. The LORE in this plasmid has three mutations. Plasmid pAM4 is the p62::934 derivative with three nucleotide substitutions in the LORE region (-C342T, -T341A and -A339G) prepared utilizing three step PCR with oligonucleotides containing site-directed mutations. Two PCR reactions with appropriate pairs of mutant primers (PCR1 : yd-8 and yd-20 and PCR2: yd-19 and lacZ-3′) and Taq DNA polymerase were carried out as recommended by Roche Molecular Biochemicals (IN) in 100 μl reactions, using 1 ng of p62::934 as a template in a PTC-100 thermal cycler for 30 cycles (1 min at 94° C., 1 min at 55° C., 1 min at 72° C.), followed by 7 min at 72° C. The PCR products were purified from a 1.0% agarose gel using a Qiaex DNA extraction kit (Qiagen, Calif.). Then, PCR products 1 and 2 were annealed and amplified as above with primer yd-8 and lacZ-3′. The resulting PCR products were purified as above and digested with restriction enzymes HindIII and SalI. Finally this PCR product was cloned into HindIII and SalI pretreated p62::934 plasmid to generate pAM4. All the constructs were verified by DNA sequencing. […]
# OLE1 mRNA = assay: Northern blot analysis of OLE1 mRNA; type: cell-based, S. cerevisiae; conditions: for levels of OLE1 mRNA after transition metal in normoxia: increasing concentrations
# Experimental: (§1) Yeast cells containing lacZ fusion plasmids were grown at 30° C. on uracil dropout medium containing dextrose (Treco, et al., In Current Protocols in Molecular Biology, Ausubel, et al., eds., pp. 13.2.1-13.2.12, John Wiley & Sons, New York (1997)). For unsaturated fatty acid repression analysis, yeast were grown in medium supplemented with 1% tergitol as described previously (Choi, et al., J. Biol. Chem. 271:3581-3589 (1996)). Cells were grown in the presence of UFAs for 6 hours prior to the β-galactosidase assays. Plasmid amplifications and bacterial transformations were performed using Escherichia coli strain DH5 (Invitrogene Corp.). Yeast transformations were performed by the method of Elble (BioTechniques 13:18-20 (1992)). Preparative cultures were grown aerobically in a shaker at 200 rpm (Innova 4000 incubator shaker, New Brunswick Scientific. NJ) at 30° C. to mid-logarithmic phase. For experiments assessing yeast under hypoxic conditions, mid-logarithmic phase preparative cultures were used to inoculate special air-tight flasks with inlet and outlet ports to allow for equilibration with the appropriate gas mixtures. Cultures were exposed to a continuous flow of hydrated medical grade nitrogen (BOC Gases, MA), unless otherwise specified, for 6 hours after inoculating the medium via the inlet port. Of note, medical grade nitrogen is contaminated with trace amounts of O2 (less than 1%). The percentage of saturated O2 in each flask was confirmed by using an oxygen monitor (G. C. Industries, Inc.) attached to the outlet port of each culture. […] Growth was monitored by measuring the yeast OD600 at the completion of each experiment.
# (§2) Total yeast RNA was isolated as described previously (Collart, et al., In Current Protocols in Molecular Biology, Ausubel, et al., pp. 13.12.1-13.12.5, John Wiley & Sons, New York (1997)). Equal amounts (15 μg) of total RNA were analyzed by Northern blots according to standard procedures for separation of RNA using 1% formaldehyde gels (Collart, et al., In Current Protocols in Molecular Biology, Ausubel, et al., eds, pp. 13.12.1-13.12.5, John Wiley & Sons, New York (1997)). […] Northern blots were quantified using a phosphorimager (Molecular Dynamics) and autoradiographs were also prepared on X-OMAT AR film (Kodak, NY).
# For the detection of OLE1 mRNA, a radiolabeled DNA probe was made using a 0.5 kb EcoRI fragment from the OLE1 protein coding sequence. […] The purified DNA fragments were labeled to high specific activity with [^32P]dCTP by the random primer extension method using Ready to Go DNA labeling beads (Amersham Pharmaceutical Biotech) reaction kit. […] Specific activity of labeled probes was determined by liquid scintillation counting.
# LORE binding factor(s) = assay: Electrophoretic mobility shift assay (EMSA) with crude yeast extracts; set-up: species or system S. cerevisiae
# Experimental: Haploid yeast (S. cerevisiae, strain RZ53-6 ) were cultured in 1-liter flasks containing 200 ml of YPD (1% yeast extract, 2% peptone, 2% dextrose) either under normoxic or hypoxic conditions, harvested at midlog phase (OD600=0.8), and lysed by vortexing with glass beads according to published protocols (Pfeifer, et al., Cell 49:9-18 (1987)). Following addition of ammonium sulfate to 40% and incubation on a rocker table at 4° C. for 30 minutes, the precipitate was collected by centrifugation at 14,000 rpm in a microfuge at 4° C. for 10 minutes. The pellet was resuspended in storage buffer (20 mM HEPES, pH8.0; 5 mM EDTA; 20% (v/v) glycerol; 1 mM PMSF; 7 mM β-mercaptoethanol) and stored frozen at −80° C. The soluble protein concentration was determined using a Bradford dye binding assay (BioRad, CA).
# EMSAs were performed essentially as described by Carey (Carey, Methods Enzymol. 208:103-117 (1991)) utilizing synthetic paired oligonucleotides (e.g., 10-5′ and 10-3′) as a probe or a probe containing the LORE sequence made by PCR using p62::934 as the template with ^32P-labeled oligonucleotides 1-5′ and yd-10 (−397 to −234) as the primers. […] The concentration of each probe was determined on an ethidium bromide stained agarose-mini gel (Maniatis, et al., Molecular Cloning: A Laboratory Manual, Cold Spring Harbor Laboratory Press, Cold Spring Harbor, N.Y. (1982)). […]
# [2] = tested on: OLE1 promoter-lacZ fusion; assay: β-galactosidase assay of OLE1 promoter-lacZ fusion reporter (p62::934 and pAM4); type: cell-based, S. cerevisiae
# Experimental: The construction of several of the OLE1 promoter-lacZ fusion deletion series has been described previously (Choi, et al., J. Biol. Chem. 271:3581-3589 (1996)). Construction of pAM6, pAM7, pAM10 and pAM16 vectors containing the OLE1 low oxygen response element (LORE) sequences −347 to −328 relative to the ATG translational start codon with the A of the codon designated as +1) was performed by inserting the synthetic paired oligonucleotides (10-5′ and 10-3′) into the XhoI restriction site of pTBA30, the CYC1 basal promoter-lacZ fusion vector. pAM16 contains one LORE copy in the −347 to −328 forward or (+) orientation 5′ to the basal CYC1 promoter-lacZ fusion. pAM7 has one LORE copy in the −328 to −347 reverse or (+) orientation. pAM6 contains a tandem repeat of the LORE in the (+) orientation. pAM10 was generated by inserting the synthetic paired oligonucleotides (yd-19 and yd-20) into the XhoI restriction site of pTBA30. The LORE in this plasmid has three mutations. Plasmid pAM4 is the p62::934 derivative with three nucleotide substitutions in the LORE region (-C342T, -T341A and -A339G) prepared utilizing three step PCR with oligonucleotides containing site-directed mutations. Two PCR reactions with appropriate pairs of mutant primers (PCR1 : yd-8 and yd-20 and PCR2: yd-19 and lacZ-3′) and Taq DNA polymerase were carried out as recommended by Roche Molecular Biochemicals (IN) in 100 μl reactions, using 1 ng of p62::934 as a template in a PTC-100 thermal cycler for 30 cycles (1 min at 94° C., 1 min at 55° C., 1 min at 72° C.), followed by 7 min at 72° C. The PCR products were purified from a 1.0% agarose gel using a Qiaex DNA extraction kit (Qiagen, Calif.). Then, PCR products 1 and 2 were annealed and amplified as above with primer yd-8 and lacZ-3′. The resulting PCR products were purified as above and digested with restriction enzymes HindIII and SalI. Finally this PCR product was cloned into HindIII and SalI pretreated p62::934 plasmid to generate pAM4. All the constructs were verified by DNA sequencing. The promoter deletion constructs were transformed into wild-type strain RZ53-6 for subsequent β-galactosidase assays.
# Yeast cells containing lacZ fusion plasmids were grown at 30° C. on uracil dropout medium containing dextrose (Treco, et al., In Current Protocols in Molecular Biology, Ausubel, et al., eds., pp. 13.2.1-13.2.12, John Wiley & Sons, New York (1997)). For unsaturated fatty acid repression analysis, yeast were grown in medium supplemented with 1% tergitol as described previously (Choi, et al., J. Biol. Chem. 271:3581-3589 (1996)). Cells were grown in the presence of UFAs for 6 hours prior to the β-galactosidase assays. Plasmid amplifications and bacterial transformations were performed using Escherichia coli strain DH5 (Invitrogene Corp.). […]
# TRX2 mRNA = assay: Northern blot analysis of TRX2 mRNA; type: cell-based, S. cerevisiae
# Experimental: (§3) Yeast cells containing lacZ fusion plasmids were grown at 30° C. on uracil dropout medium containing dextrose (Treco, et al., In Current Protocols in Molecular Biology, Ausubel, et al., eds., pp. 13.2.1-13.2.12, John Wiley & Sons, New York (1997)). For unsaturated fatty acid repression analysis, yeast were grown in medium supplemented with 1% tergitol as described previously (Choi, et al., J. Biol. Chem. 271:3581-3589 (1996)). Cells were grown in the presence of UFAs for 6 hours prior to the β-galactosidase assays. Plasmid amplifications and bacterial transformations were performed using Escherichia coli strain DH5 (Invitrogene Corp.). […] Growth was monitored by measuring the yeast OD600 at the completion of each experiment.
# as §2, with “NY). […]” for “NY).”
# ATF1 = assay: Northern blot analysis of ATF1 mRNA; type: cell-based, S. cerevisiae
# Experimental: as §3
# as §2, with “NY). […]” for “NY).”
# SUT1 = assay: Northern blot analysis of SUT1 expression; type: cell-based, S. cerevisiae
# Experimental: as §3
# as §2, with “NY). […]” for “NY).”
# ANB1 = assay: Expression of anaerobic yeast gene ANB1; type: cell-based, S. cerevisiae
# S. cerevisiae = type: cell-based; conditions: any of the concentrations tested
# Experimental: as §1, with “mixtures.” for “mixtures. Cultures were exposed to a continuous flow of hydrated medical grade nitrogen (BOC Gases, MA), unless otherwise specified, for 6 hours after inoculating the medium via the inlet port. Of note, medical grade nitrogen is contaminated with trace amounts of O2 (less than 1%). The percentage of saturated O2 in each flask was confirmed by using an oxygen monitor (G. C. Industries, Inc.) attached to the outlet port of each culture.”
molecule,measurement,setting,value
CCCCC/C=C\C/C=C\CCCCCCCC(=O)O [linoleic acid],IC50,"[1]; Saccharomyces cerevisiae, reporter pAM6 (two copies of LORE in tandem), UFA for 6 hours, read-out: IC50 of inhibition of lacZ reporter plasmid pAM6 expression",~20 µM
same,repression / dose-response inhibition of lacZ reporter pAM6 expression,"[1]; normoxia-, hypoxia- and cobalt-induced expression, pAM6",strongly repress
same,OLE1 mRNA level after unsaturated fatty acid,OLE1 mRNA; Northern blot,dramatically repressed
same,hypoxia-induced LORE complex formation (B1),LORE binding factor(s); crude extracts from L.A.-treated yeast,significantly suppressed
"[Cl][Ni][Cl] [NiCl2, nickel chloride]",levels of OLE1 mRNA after transition metal in normoxia,OLE1 mRNA,increased levels
"[Cl][Co][Cl] [CoCl2, cobalt chloride]",induction of reporter under cobalt-treated conditions in ROX1 deletion strain,"[2]; reporter p62::934, strain RZ53-6 Δrox1",5.1 fold increase
same,CoCl2 dependent induction by reporter assay,[2]; reporter pAM4 (mutated LORE),not affected
same,increase of reporter gene expression under cobalt-treated conditions,[1]; plasmid pAM6,~10 fold
same,levels of OLE1 mRNA after transition metal in normoxia,OLE1 mRNA,increased levels
same,cobalt induction of TRX2 mRNA,TRX2 mRNA,~2.5 fold
same,induction of ATF1 by cobalt treatment,ATF1,induced
same,induction of SUT1 expression by cobalt,SUT1,no significant induction
same,expression of ANB1 with cobalt,ANB1,not upregulated
#8: paired oligonucleotides -387 to -368 of OLE1 promoter (SEQ ID NO:44/45) (chain 1 AGGTCTCTTCGCATAGTCG; chain 2 CGACTATGCGAAGAGAACCT; chemistry not given here),hypoxia- or CoCl2-induced complex formation with end-labeled probe,LORE binding factor(s); crude extracts from hypoxia and cobalt treated yeast,No specific hypoxia- or CoCl2-induced complex formation
"c1cnc2c(c1)ccc1cccnc12 [1,10 Ph, 1,10-phenanthroline]",gene expression after incubation with chelator,"[2]; 6 hours of incubation, 2-8 μg/ml",substantially increase
same,expression of OLE1 by OLE1 promoter-lacZ reporter,[2]; exposure for six hours,dose dependent increase
same,expression of OLE1 by Northern blot,OLE1 mRNA; exposure for six hours,dose dependent increase
same,cell growth,S. cerevisiae,unaffected
